Where two headings read alike, the source gives them in different places.
Tests used:
[1] = Pharmacokinetic assay in Balb/c mice (plasma and brain tissue); assay type: in vivo; conditions: male, mouse, po
Procedure: Balb/c mice were used as test animals. The pharmacokinetic behavior in mice (plasma and brain tissue) of the compounds of Example 2, Example 5, Example 7, Example 12, Example 18, Example 23, Example 26, Example 38, Example 41, Example 50, Example 51 and Example 66 orally administrated at a dose of 5 mg/kg was studied.
Each group had 24 male Balb/c mice. After an overnight fast, Balb/c mice were administrated p.o. with the test compound at an administration dose of 5 mg/kg and an administration volume of 10 mL/kg.
0.2 ml of blood was taken from the heart before administration and at 0, 0.5, 1, 2, 4, 6, 8 and 24 hours after administration. The samples were stored in EDTA-K2 tubes, and centrifuged for 6 minutes at 4° C., 6000 rpm to separate the plasma. The plasma samples were stored at −80° C. The mice were sacrificed with CO2, and the whole brain tissue was taken out, weighed, placed in a 2 mL centrifuge tube and stored at −80° C.
1) 160 μL of acetonitrile was added to 40 μL of the plasma sample for precipitation, and then the mixture was centrifuged for 5-20 minutes at 3500×g.
2) 90 μL of acetonitrile containing the internal standard (100 ng/mL) was added to 30 μL of the plasma and brain homogenate samples for precipitation, and then the mixture was centrifuged for 8 minutes at 13000 rpm.
3) 70 μL of the treated supernatant was taken and added to 70 μL of water, and mixed by vortex for 10 minutes. 20 μL of the mixture was taken to analyze the concentration of the test compound by LC/MS/MS. LC/MS/MS analysis instrument: AB Sciex API 4000 Qtrap.
2.6 Liquid Chromatography Analysis • Liquid chromatography condition: Shimadzu LC-20AD pump. • Chromatographic column: Agilent ZORBAX XDB-C18 (50×2.1 mm, 3.5 μm); Mobile phase: Eluent A was 0.1% formic acid in water, and Eluent B was acetonitrile. • Flow rate: 0.4 mL/min • Elution time: 0-4.0 minutes the eluent is as follows:
The main parameters of pharmacokinetics were calculated by WinNonlin 6.1.

CD-1 mice = experiment: In vivo pharmacodynamic test in the PTZ-induced epilepsy model in mice; conditions: 3 mpk p.o., PTZ 120 mg/kg s.c., 30 min observation
Procedure: The PTZ-induced epilepsy model in CD-1 mice was established, and the antiepileptic effect of the compounds of Example 5 and Example 23 was evaluated using this model.
30 male CD-1 mice were purchased from Beijing Vital River Laboratory Animal Technology Co. Ltd. The test animals were adapted at the animal room in the third building of Shanghai ChemPartner Co., Ltd for 7 days before the test. The average body weight of the animals on the test day was 32.2±0.2 grams. Feeding environment: 5 animals/cage, room temperature 23±2° C., 12/12 hours of light and dark cycle, free access to food and water.
1) Vehicle/PTZ: 0.5% CMC-Na+1% Tween-80 (10 ml/kg, p.o.), administrated 0.5 hr before the PTZ administration; PTZ ([…], s.c.), administrated before the test;
2) 3 mg/kg of the compounds of Examples/PTZ: the compounds of Example 5 and Example 23 (3 mg/kg, 10 ml/kg, p.o.), administrated 0.5 hr before the PTZ administration; PTZ ([…], s.c.), administrated before the test.
3) The compounds of Example 5 and Example 23 were administrated respectively 1 hour before the PTZ administration, or 0.5% CMC-NA+1% Tween-80, the compounds of Example 5 and Example 23 were administrated respectively 0.5 hour before the PTZ administration;
4) PTZ (120 mg/kg) was administrated subcutaneously before the test observation, and this time point was recorded as the observation start point;
6) The possible side effects induced by the drug after the administration were observed and recorded, which can be divided into four levels: • None: normal • Mild sedation • Moderate sedation • Severe sedation
The mice were randomly grouped, marked and weighed; 10 mice per group. The test compound was administrated orally at an administration volume of 10 mL/kg 30-60 minutes before the PTZ administration.
PTZ (120 mg/kg) was administrated subcutaneously before the test observation, and this time point was recorded as the observation start point; after the administration of PTZ, the animal was immediately placed in the observation box and observed for 30 minutes, and the followings were recorded: a) the incubation period of the first clonic seizure, b) the incubation period of the first generalized tonic seizure, c) the number of clonic seizures, d) the number of generalized tonic seizures, e) the time when the animal died.
All measurement data were expressed as Mean±SEM, and analysed with Prism 6.0 statistical software.

[2] = Balb/c, in vivo, 5 mg/kg, Area under curve AUC0-t
[3] = Balb/c, in vivo, 5 mg/kg, Half-life t1/2
[4] = Balb/c, in vivo, 5 mg/kg, Mean residence time MRT
[5] = Balb/c, in vivo, 5 mg/kg, Peak time tmax
[6] = Balb/c, in vivo, 5 mg/kg, Plasma concentration Cmax

Row | Compound | Incubation period of the clonic seizure Mean ± SEM (CD-1 mice) [s] | Incubation period of the generalized tonic seizure Mean (CD-1 mice) [s] | Mortality rate (CD-1 mice) [%] | Number of clonic seizures Mean (CD-1 mice) | Number of generalized tonic seizures Mean (CD-1 mice) | Time when the animal died Mean (CD-1 mice) [s] | Area under curve AUC0-t ([1]; Balb/c, in vivo, 5 mg/kg) [ng·h/mL] | Half-life t1/2 ([1]; Balb/c, in vivo, 5 mg/kg) [h] | Mean residence time MRT ([1]; Balb/c, in vivo, 5 mg/kg) [h] | Plasma concentration Cmax ([1]; Balb/c, in vivo, 5 mg/kg) [ng/mL] | AUC(0-t) [1, 2] [ng·h/mL] | half-life [1, 3] [h] | MRT [1, 4] [h] | Tmax [1, 5] [h] | Cmax [1, 6] [ng/mL] | other results
1 | C[C@@]1(O)CC[C@@]2(F)[C@H](CC[C@H]3[C@@H]4CC[C@H](C(=O)Cn5cc(C#N)cn5)[C@@]4(C)CC[C@@H]32)C1 [Example 2, 1-(2-((3R,5R,8S,9S,10R,13S,14S,17S)-10-Fluoro-3-hydroxy-3,13-dimethylhexadecahydro-1H-cyclopenta[a]phenanthren-17-yl)-2-oxoethyl)-1H-pyrazole-4-carbonitrile] |  |  |  |  |  |  |  |  |  |  |  |  |  |  |  | AUC(0-t) ([1]; Balb/c, brain, 5 mg/kg, Balb/c mice, 5 mg/kg p.o., brain tissue, read-out: Area under curve AUC0-t): 1770 ng·h/mL; AUC(0-inf) ([1]; Balb/c, brain, 5 mg/kg, Balb/c mice, 5 mg/kg p.o., brain tissue, read-out: Area under curve AUC0-∞): 1790 ng·h/mL; half-life ([1]; Balb/c, brain, 5 mg/kg, Balb/c mice, 5 mg/kg p.o., brain tissue, read-out: Half-life t1/2 (converted)): 1.49 h; MRT ([1]; Balb/c, brain, 5 mg/kg, Balb/c mice, 5 mg/kg p.o., brain tissue, read-out: Mean residence time MRT): 2.26 h; Cmax ([1]; Balb/c, brain, 5 mg/kg, Balb/c mice, 5 mg/kg p.o., brain tissue, read-out: Plasma concentration Cmax): 655 ng/mL; AUC(0-t) ([1]; Balb/c, plasma, 5 mg/kg, Balb/c mice, 5 mg/kg p.o., plasma, read-out: Area under curve AUC0-t): 2660 ng·h/mL; AUC(0-inf) ([1]; Balb/c, plasma, 5 mg/kg, Balb/c mice, 5 mg/kg p.o., plasma, read-out: Area under curve AUC0-∞): 2710 ng·h/mL; half-life ([1]; Balb/c, plasma, 5 mg/kg, Balb/c mice, 5 mg/kg p.o., plasma, read-out: Half-life t1/2 (converted)): 1.49 h; MRT ([1]; Balb/c, plasma, 5 mg/kg, Balb/c mice, 5 mg/kg p.o., plasma, read-out: Mean residence time MRT): 2.49 h; Cmax ([1]; Balb/c, plasma, 5 mg/kg, Balb/c mice, 5 mg/kg p.o., plasma, read-out: Plasma concentration Cmax): 846 ng/mL; Tmax ([1]; Balb/c mice, 5 mg/kg p.o., brain tissue, read-out: Peak time tmax): 1 h; Tmax ([1]; Balb/c mice, 5 mg/kg p.o., plasma, read-out: Peak time tmax): 1 h
2 | C[C@@]1(O)CC[C@@]2(F)[C@H](CC[C@H]3[C@@H]4CC[C@H](C(=O)Cn5ccc(C(F)(F)F)n5)[C@@]4(C)CC[C@@H]32)C1 [Example 5, 1-((3R,5R,8S,9S,10R,13S,14S,17S)-10-Fluoro-3-hydroxy-3,13-dimethylhexadecahydro-1H-cyclopenta[a]phenanthren-17-yl)-2-(3-(trifluoromethyl)-1H-pyrazol-1-yl)ethan-1-one] | 644.5 ± 122.0 | 1576.7 ± 108.8 | 40 | 1.8 ± 0.3 | 0.4 ± 0.2 | 1623.0 ± 105.5 | 470.9 | 0.94 | 1.74 | 233.7 | 515 | 1.16 | 1.94 | 0.5 | 242 | Area under curve AUC0-∞ ([1]; Balb/c, in vivo, 5 mg/kg): 485.5 ng·h/mL; AUC(0-inf) ([1]; Balb/c, in vivo, 5 mg/kg, Area under curve AUC0-∞): 524 ng·h/mL
3 | C[C@@]1(O)CC[C@@]2(F)[C@H](CC[C@H]3[C@@H]4CC[C@H](C(=O)CNc5ccc(F)cc5)[C@@]4(C)CC[C@@H]32)C1 [Example 23, 1-((3R,5R,8S,9S,10R,13S,14S,17S)-10-Fluoro-3-hydroxy-3,13-dimethylhexadecahydro-1H-cyclopenta[a]phenanthren-17-yl)-2-((4-fluorophenyl)amino)ethan-1-one] | 366.5 ± 21.1 | 1519.9 ± 117.9 | 40 | 1.8 ± 0.2 | 0.4 ± 0.2 | 1527.7 ± 114.6 | 1067.1 | 1.36 | 2.42 | 558.0 | 545 | 1.08 | 1.78 | 0.5 | 408 | 

Reference: patent publication US11661437B2, “Steroid derivative regulators, method for preparing the same, and uses thereof” (priority 2018, dated 2023)
